In brackets after ≈: the same amount, converted by molar mass. Blank lines part the entries; values can stand above or below the compound they belong to.
Columns and labels:
Assay type in all cases: functional
[1] = test system: Staphylococcus aureus; assay: Antibacterial activity against Staphylococcus aureus ATCC 6538 incubated for 16 hrs by broth microdilution method; conditions: ATCC 6538, 16 h
[2] = test system: Staphylococcus aureus; assay: Antibacterial activity against methicillin-resistant Staphylococcus aureus shhs-A1 incubated for 16 hrs by broth microdilution method; conditions: shhs-A1, 16 h
[3] = test system: Escherichia coli; assay: Antibacterial activity against Escherichia coli ATCC 8099 incubated for 16 hrs by broth microdilution method; conditions: ATCC 8099, 16 h
[4] = test system: Bacillus spizizenii; assay: Antibacterial activity against Bacillus subtilis ATCC 6633 incubated for 16 hrs by broth microdilution method; conditions: ATCC 6633, 16 h

Compound: COc1cc(C)c(-c2cc(OC)c(Cl)c3c2C(=O)[C@@]2(O)C(=O)c4c(O)cc(O)cc4C(C)(C)[C@H]2C3)c(O)c1
MIC [1]: 6.25 µg/mL (≈ 11.6 µM)
MIC [2]: 6.25 µg/mL (≈ 11.6 µM)
MIC [3]: 3.13 µg/mL (≈ 5.81 µM)
MIC [4]: 6.25 µg/mL (≈ 11.6 µM)

Compound: COc1cc(C)c(-c2cc(O)c(Cl)c3cc4c(c(O)c23)C(=O)c2c(O)cc(OC)cc2C4(C)C)c(OC)c1
MIC [1]: 6.25 µg/mL (≈ 11.7 µM)
MIC [2]: 6.25 µg/mL (≈ 11.7 µM)
MIC [3]: 6.25 µg/mL (≈ 11.7 µM)
MIC [4]: 6.25 µg/mL (≈ 11.7 µM)

Compound: COc1cc(C)c(-c2cc(OC)cc3cc4c(c(O)c23)C(=O)c2c(O)cc(O)cc2C4(C)C)c(OC)c1
MIC [1]: 3.13 µg/mL (≈ 6.25 µM)
MIC [2]: 1.56 µg/mL (≈ 3.12 µM)
MIC [3]: 1.56 µg/mL (≈ 3.12 µM)
MIC [4]: 3.13 µg/mL (≈ 6.25 µM)

Compound: COc1cc(-c2c(O)cc(OC)c(Cl)c2C)c2c(O)c3c(cc2c1)C(C)(C)c1cc(O)cc(O)c1C3=O
MIC [1]: 6.25 µg/mL (≈ 12 µM)
MIC [2]: 3.13 µg/mL (≈ 6.01 µM)
MIC [3]: 3.13 µg/mL (≈ 6.01 µM)
MIC [4]: 6.25 µg/mL (≈ 12 µM)

MIC [1]: 12.5 µg/mL (≈ 23.8 µM)
MIC [3]: 25 µg/mL (≈ 47.6 µM)
MIC [4]: 50 µg/mL (≈ 95.2 µM)
Compound: COc1cc(C)c(-c2cc(O)c(Cl)c3c2C(=O)[C@@]2(O)C(=O)c4c(O)cc(O)cc4C(C)(C)[C@H]2C3)c(O)c1

Compound: COc1cc(C)c(-c2cc(OC)c(Cl)c3cc4c(c(O)c23)C(=O)c2c(O)cc(O)cc2C4(C)C)c(OC)c1
MIC [1]: 3.13 µg/mL (≈ 5.85 µM)
MIC [2]: 3.13 µg/mL (≈ 5.85 µM)
MIC [3]: 3.13 µg/mL (≈ 5.85 µM)
MIC [4]: 12.5 µg/mL (≈ 23.4 µM)

Compound: COc1cc(OC)c(-c2cc(OC)c(Cl)c3c2C(=O)[C@@]2(O)C(=O)c4c(cc(O)c(Cl)c4O)C(C)(C)[C@H]2C3)c(C)c1Cl
MIC [1]: 6.25 µg/mL (≈ 10 µM)
MIC [2]: 3.13 µg/mL (≈ 5.03 µM)
MIC [3]: 12.5 µg/mL (≈ 20.1 µM)
MIC [4]: 3.13 µg/mL (≈ 5.03 µM)

Compound: COc1cc(O)c(-c2cc(OC)c(Cl)c3c2C(=O)[C@@]2(O)C(=O)c4c(O)cc(O)cc4C(C)(C)[C@H]2C3)c(C)c1Cl
MIC [1]: 0.39 µg/mL (≈ 0.68 µM)
MIC [2]: 1.56 µg/mL (≈ 2.72 µM)
MIC [3]: 1.56 µg/mL (≈ 2.72 µM)
MIC [4]: 1.56 µg/mL (≈ 2.72 µM)

Compound: COc1cc(C)c(-c2cc(OC)cc3cc4c(c(O)c23)C(=O)c2c(O)cc(O)cc2C4(C)C)c(O)c1
MIC [1]: 3.13 µg/mL (≈ 6.43 µM)
MIC [2]: 3.13 µg/mL (≈ 6.43 µM)
MIC [3]: 3.13 µg/mL (≈ 6.43 µM)
MIC [4]: 6.25 µg/mL (≈ 12.8 µM)

Compound: COc1cc(OC)c(-c2cc(OC)c(Cl)c3c2C(=O)[C@@]2(O)C(=O)c4c(O)cc(O)cc4C(C)(C)[C@H]2C3)c(C)c1Cl
MIC [1]: 6.25 µg/mL (≈ 10.6 µM)
MIC [2]: 25 µg/mL (≈ 42.6 µM)
MIC [3]: 25 µg/mL (≈ 42.6 µM)
MIC [4]: 25 µg/mL (≈ 42.6 µM)

Compound: COc1cc(O)c(-c2cc(O)cc3cc4c(c(O)c23)C(=O)c2c(O)cc(O)cc2C4(C)C)c(C)c1Cl
MIC [1]: 3.13 µg/mL (≈ 6.17 µM)
MIC [2]: 1.56 µg/mL (≈ 3.08 µM)
MIC [3]: 3.13 µg/mL (≈ 6.17 µM)
MIC [4]: 3.13 µg/mL (≈ 6.17 µM)

Compound: COc1cc(C)c(-c2cc(OC)c(Cl)c3c2C(=O)[C@@]2(O)C(=O)c4c(O)c(Cl)c(O)c(Cl)c4C(C)(C)[C@H]2C3)c(OC)c1
MIC [1]: 0.39 µg/mL (≈ 0.627 µM)
MIC [2]: 0.2 µg/mL (≈ 0.322 µM)
MIC [3]: 0.78 µg/mL (≈ 1.25 µM)
MIC [4]: 0.39 µg/mL (≈ 0.627 µM)

Compound: COc1cc(C)c(-c2cc(OC)c(Cl)c3c2C(=O)[C@@]2(O)C(=O)c4c(O)cc(O)c(Cl)c4C(C)(C)[C@H]2C3)c(OC)c1
MIC [1]: 0.78 µg/mL (≈ 1.33 µM)
MIC [2]: 1.56 µg/mL (≈ 2.66 µM)
MIC [3]: 1.56 µg/mL (≈ 2.66 µM)
MIC [4]: 3.13 µg/mL (≈ 5.33 µM)

Compound: COc1cc(O)cc(C)c1-c1cc(O)c(Cl)c2cc3c(c(O)c12)C(=O)c1c(O)cc(O)cc1C3(C)C
MIC [1]: 1.56 µg/mL (≈ 3.08 µM)
MIC [2]: 3.13 µg/mL (≈ 6.17 µM)
MIC [3]: 6.25 µg/mL (≈ 12.3 µM)
MIC [4]: 6.25 µg/mL (≈ 12.3 µM)

Compound: COc1cc(OC)c(-c2cc(OC)c(Cl)c3c2C(=O)[C@@]2(O)C(=O)c4c(O)cc(O)c(Cl)c4C(C)(C)[C@H]2C3)c(C)c1Cl
MIC [1]: 3.13 µg/mL (≈ 5.03 µM)
MIC [2]: 3.13 µg/mL (≈ 5.03 µM)
MIC [3]: 1.56 µg/mL (≈ 2.51 µM)
MIC [4]: 1.56 µg/mL (≈ 2.51 µM)

Compound: COc1cc(C)c(-c2cc(OC)c(Cl)c3c2C(=O)[C@@]2(O)C(=O)c4c(O)cc(O)cc4C(C)(C)[C@H]2C3)c(OC)c1
MIC [1]: 3.13 µg/mL (≈ 5.66 µM)
MIC [2]: 1.56 µg/mL (≈ 2.82 µM)
MIC [3]: 3.13 µg/mL (≈ 5.66 µM)
MIC [4]: 3.13 µg/mL (≈ 5.66 µM)

Compound: COc1cc2c(c(-c3c(O)cc(OC)c(Cl)c3C)c1)C(=O)[C@@]1(O)C(=O)c3c(O)cc(O)cc3C(C)(C)[C@H]1C2
MIC [1]: 3.13 µg/mL (≈ 5.81 µM)
MIC [2]: 3.13 µg/mL (≈ 5.81 µM)
MIC [3]: 3.13 µg/mL (≈ 5.81 µM)
MIC [4]: 6.25 µg/mL (≈ 11.6 µM)

Compound: NC[C@H]1O[C@H](O[C@H]2[C@H](O)[C@@H](O[C@H]3O[C@H](CO)[C@@H](O)[C@H](N)[C@H]3O)[C@H](N)C[C@@H]2N)[C@H](O)[C@@H](O)[C@@H]1O [KANAMYCIN]
MIC [1]: 1.56 µg/mL (≈ 3.22 µM)
MIC [3]: 50 µg/mL (≈ 103 µM)
MIC [4]: 0.78 µg/mL (≈ 1.61 µM)

Compound: CN[C@H](CC(C)C)C(=O)N[C@H]1C(=O)N[C@@H](CC(N)=O)C(=O)N[C@H]2C(=O)N[C@H]3C(=O)N[C@H](C(=O)N[C@H](C(=O)O)c4cc(O)cc(O)c4-c4cc3ccc4O)[C@H](O)c3ccc(c(Cl)c3)Oc3cc2cc(c3O[C@@H]2O[C@H](CO)[C@@H](O)[C@H](O)[C@H]2O[C@H]2C[C@](C)(N)[C@H](O)[C@H](C)O2)Oc2ccc(cc2Cl)[C@H]1O [VANCOMYCIN]
MIC [2]: 1.56 µg/mL (≈ 1.08 µM)

Reference: ChEMBL document CHEMBL4622887, “Antibacterial Pentacyclic Polyketides from a Soil-Derived Streptomyces” (2020)
